# Data: the supplement of paper PMC10307832
# How the values were obtained:
# Assay in all cases: relative viability (nuclei count vs DMSO), 5 days (fraction); higher = more cells survive
# NCI-H838 = system: NCI-H838
# In short: (§1)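 Relative viability divides the nuclei count in treated wells by that in vehicle wells. Lung cancer cell lines were seeded in 1536-well plates, dosed by pin tool the next day, and fixed and stained after 5 days in one step with final 0.05% Triton X-100, 1% formaldehyde and 1 ug/ml Hoechst. Dosing was a single drug or a fixed anchor-drug dose plus five library-drug doses (not always all listed) in √10 steps, and values are medians of duplicate plates imaged at 4×.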
# CAL-12T = system: CAL-12T
# In short: as §1
# NCI-H1734 = system: NCI-H1734
# In short: as §1
# NCI-H3122 = system: NCI-H3122
# In short: as §1
# NCI-H1975 = system: NCI-H1975
# In short: as §1
# HCC-366 = system: HCC-366
# In short: as §1
# NCI-H647 = system: NCI-H647
# In short: as §1
# SK-LU-1 = system: SK-LU-1
# In short: as §1
# LC-2-ad = system: LC-2-ad
# In short: as §1
# H3255 = system: H3255
# In short: as §1
# LU99A = system: LU99A
# In short: as §1
compound,measurement,setting,value
COCC1(CO)C(=O)C2CCN1CC2 (stereo unspecified) [PRIMA-1MET] + CS(=O)(=O)CCNCc1ccc(-c2ccc3ncnc(Nc4ccc(OCc5cccc(F)c5)c(Cl)c4)c3c2)o1 [Lapatinib] (partner 2 µM),relative viability,NCI-H838; first compound 0.2 µM,1.23
same,relative viability,NCI-H838; first compound 0.6325 µM,0.913
same,relative viability,NCI-H838; first compound 2 µM,0.801
same,relative viability,NCI-H838; first compound 6.325 µM,1.06
same,relative viability,NCI-H838; first compound 20 µM,0.197
same,relative viability,CAL-12T; first compound 0.2 µM,0.704
same,relative viability,CAL-12T; first compound 0.6325 µM,0.736
same,relative viability,CAL-12T; first compound 2 µM,0.571
same,relative viability,CAL-12T; first compound 6.325 µM,0.677
same,relative viability,CAL-12T; first compound 20 µM,0.388
same,relative viability,NCI-H1734; first compound 0.2 µM,1.43
same,relative viability,NCI-H1734; first compound 0.6325 µM,0.98
same,relative viability,NCI-H1734; first compound 2 µM,0.857
same,relative viability,NCI-H1734; first compound 6.325 µM,1.07
same,relative viability,NCI-H1734; first compound 20 µM,0.591
same,relative viability,NCI-H3122; first compound 0.2 µM,0.711
same,relative viability,NCI-H3122; first compound 0.6325 µM,1.04
same,relative viability,NCI-H3122; first compound 2 µM,1.03
same,relative viability,NCI-H3122; first compound 6.325 µM,0.996
same,relative viability,NCI-H3122; first compound 20 µM,0.954
same,relative viability,NCI-H1975; first compound 0.2 µM,0.988
same,relative viability,NCI-H1975; first compound 0.6325 µM,0.786
same,relative viability,NCI-H1975; first compound 2 µM,0.774
same,relative viability,NCI-H1975; first compound 6.325 µM,0.947
same,relative viability,NCI-H1975; first compound 20 µM,0.816
same,relative viability,HCC-366; first compound 0.2 µM,1.28
same,relative viability,HCC-366; first compound 0.6325 µM,0.856
same,relative viability,HCC-366; first compound 6.325 µM,0.915
same,relative viability,HCC-366; first compound 20 µM,0.016
same,relative viability,NCI-H647; first compound 0.2 µM,1.29
same,relative viability,NCI-H647; first compound 0.6325 µM,1.09
same,relative viability,NCI-H647; first compound 2 µM,0.759
same,relative viability,NCI-H647; first compound 6.325 µM,1.29
same,relative viability,NCI-H647; first compound 20 µM,0.783
same,relative viability,SK-LU-1; first compound 0.2 µM,1.12
same,relative viability,SK-LU-1; first compound 0.6325 µM,0.667
same,relative viability,SK-LU-1; first compound 2 µM,0.61
same,relative viability,SK-LU-1; first compound 6.325 µM,0.784
same,relative viability,SK-LU-1; first compound 20 µM,0.235
same,relative viability,LC-2-ad; first compound 0.2 µM,1.15
same,relative viability,LC-2-ad; first compound 0.6325 µM,0.831
same,relative viability,LC-2-ad; first compound 2 µM,0.769
same,relative viability,LC-2-ad; first compound 6.325 µM,0.936
same,relative viability,LC-2-ad; first compound 20 µM,0.963
same,relative viability,H3255; first compound 0.2 µM,0.231
same,relative viability,H3255; first compound 0.6325 µM,0.21
same,relative viability,H3255; first compound 2 µM,0.225
same,relative viability,H3255; first compound 6.325 µM,0.237
same,relative viability,H3255; first compound 20 µM,0.195
same,relative viability,LU99A; first compound 0.2 µM,1.1
same,relative viability,LU99A; first compound 0.6325 µM,0.905
